Results published in patent publication US4680285A, “Treatment of malignant tumors with 2-(β-D-ribofuranosylthiazole-4-carboxamide related compounds” (priority 1985, dated 1987).
“Also recorded” adds a separate entry of the source.

Legend:
[1] = test system: L-1210 lymphoid leukemia; assay: L-1210 lymphoid leukemia in vivo, mean survival, 30-day test (Example 9); parameters: species or system CD2 F1 male mice
Description: For Example 9a and 9b, CD2 F1 male mice were used and challenged with L-1210 lymphoid leukemia. […] The test period was for thirty days. Test results are expressed as T/C as per Example 5.
In Example 9a, 24 control animals were used and six test animals at each drug dose level as is indicated below in table 9a. For both the control group and the drug test group, tumors were induced by IP inoculation of tumor seed cells on day zero followed by initiation of drug treatment on day one. For example 9a, water was used as the drug vehicle and for Examples 9b saline was used as the drug vehicle.
In both the control groups and the drug treated groups in Examples 9a and 9b, the test animals were inoculated on day zero IP with 10^6 seed cells of L-1210 lymphoid leukemia. For Example 9a, drug treatment was started on day one and compound 1 given once daily for nine days. Day five was utilized as the cutoff date for death attributable to toxicity of the drug. […] Efficacy of treatment was determined by comparing mean survival time of drug treated animals with mean survival time of the control animals and is expressed as percentage increase of treated animals/control animals (T/C) as per Example 5.
In this example, the drug treated animals were injected IP with dose levels noted in table 5a below. Six animals were treated at each dose level. No control animals survived beyond day ten with a mean death date of day 9.7.
In this example, drug treated animals were injected IP with the dose level noted in table 5b below. Ten animals were treated at each dose level. No control animals survived beyond day ten with a mean death date of day 9.0.

[2] = test system: malignant tumors; assay: antitumor activity in vivo (general statements); conditions: summary statements
[3] = test system: type 1 herpes simplex virus; conditions: cited from earlier work
[4] = test system: type 3 rhinovirus; conditions: cited from earlier work
[5] = test system: L-1210 lymphoid leukemia; assay: L-1210 lymphoid leukemia in vivo screen, median survival (Example 5); parameters: species or system CD2 F1 male mice; conditions: for Percent Treated Animals/Control Animals: >125% positive; for Treated Group Survival Time (median): control 8.5
Description: As an indicator of reproducible activity, compound 1 of the invention was screened against L-1210 lymphoid leukemia in vivo using CD2 F1 male mice as the testing species. The parameter of efficacy chosen was based upon the median survival time of animals treated with the drug vs. appropriate control group animals. Both drug treated animals and control group animals were inoculated IP with 10^5 seed cells of L-1210 lymphoid leukemia in Ascitic fluid.
One day after tumor inoculation, the drug group of animals was placed on a regimen of treatment of compound 1 at the dose levels as noted below, table 1. The drug treated group of animals was inoculated once daily for five days at the doses noted by IP injection of the test compound appropriately diluted with water.
Day six was chosen as an indication of drug toxicity. […] Death of drug treated animals after day six was, therefore, attributed to tumor deaths and not drug toxicity.
The median death day of the control group was day 8.5. […] A percent of drug treated animals/control animals greater than 125% is taken as positive drug activity.

[6] = test system: Lewis lung carcinoma; assay: Lewis lung carcinoma (IV inoculated) in vivo, median survival, 60-day test (Example 10); parameters: species or system B6 D2 F1 male mice; conditions: for Treated Group Survival Time (median): assigned 60 at end of test, control 18.4; for Percent Treated Animals/Control Animals: based on assigned 60 days
Description: For example 10, B6 D2 F1 male mice were used and challenged with Lewis lung carcinoma.
In Example 10, forty control animals were used and ten test animals each at dose levels indicated below in Table 6. For both the control group and the drug treated group, tumors were induced by IV injection on day zero followed by initiating of drug treatment on day one. For example 10 water was used as the drug vehicle.
In both the control group and the drug treated group in Example 10, the animals were inoculated on day zero with a homogenate of 10^6 seed cells of Lewis lung carcinoma. For Example 10, drug treatment was started on day one and compound 1 given once daily for nine days. Day five was utilized as the cut-off date for details attributable to toxicity of the drug. […] Efficacy of treatment was determined by comparing median survival time of drug treated animals with median survival time of the control animals and is expressed as percentage increase of treated animals/control animals (T/C) as per Example 5.
The test period was for sixty days and at the end of the sixty day period all animals surviving in the test groups were evaluated as either cured, no-takes, or tumor survivors as per Example 5 above.
In this example, the drug treated animals were injected IP with the dose level noted in table 6 below. Ten animals were treated at each dose level. No control animals survived beyond day 23 with a median death data of day 18.4. […] Because of this fact, the T/C ratio noted in table 6 below is a constant figure based on assigning survival day rate of sixty to the treated animals and a median death date of 18.4 days to the control animals.

[7] = test system: viruses; conditions: test viruses; cited from earlier work
[8] = 100 mg/Kg, ten animals, sixty days

With `NC(=O)c1csc([C@@H]2O[C@H](CO)[C@@H](O)[C@H]2O)n1` [Compound 1, 2-β-D-Ribofuranosylthiazole-4-Carboxamide] the “Percent Treated Animals/Control Animals” value ([1]; Ex. 9a, water, 25 mg/Kg IP once daily x9) was 131%, the “Treated Group Survival Time (mean)” value ([1]; Ex. 9a, water, 25 mg/Kg IP once daily x9, control 9.7) was 12.8 days and the “Percent Treated Animals/Control Animals” value ([1]; Ex. 9a, water, 50 mg/Kg IP once daily x9) was 136%. The “Treated Group Survival Time (mean)” value ([1]; Ex. 9a, water, 50 mg/Kg IP once daily x9, control 9.7) was 13.2 days, the “Percent Treated Animals/Control Animals” value ([1]; Ex. 9a, water, 100 mg/Kg IP once daily x9) was 144% and the “Treated Group Survival Time (mean)” value ([1]; Ex. 9a, water, 100 mg/Kg IP once daily x9, control 9.7) was 14.0 days. The “Percent Treated Animals/Control Animals” value ([1]; Ex. 9a, water, 200 mg/Kg IP once daily x9) was 157%, the “Treated Group Survival Time (mean)” value ([1]; Ex. 9a, water, 200 mg/Kg IP once daily x9, control 9.7) was 15.3 days and the “Percent Treated Animals/Control Animals” value ([1]; Ex. 9a, water, 400 mg/Kg IP once daily x9) was 192%. The “Treated Group Survival Time (mean)” value ([1]; Ex. 9a, water, 400 mg/Kg IP once daily x9, control 9.7) was 18.7 days, the “Percent Treated Animals/Control Animals” value ([1]; Ex. 9b, saline, 100 mg/Kg IP) was 183% and the “Treated Group Survival Time (mean)” value ([1]; Ex. 9b, saline, 100 mg/Kg IP, control 9.0) was 16.5 days. For the same molecule, the “Percent Treated Animals/Control Animals” value ([1]; Ex. 9b, saline, 200 mg/Kg IP) was 182%, the “Treated Group Survival Time (mean)” value ([1]; Ex. 9b, saline, 200 mg/Kg IP, control 9.0) was 16.4 days and the “Percent Treated Animals/Control Animals” value ([1]; Ex. 9b, saline, 400 mg/Kg IP) was 224%. For the same molecule, the “Treated Group Survival Time (mean)” value ([1]; Ex. 9b, saline, 400 mg/Kg IP, control 9.0) was 20.2 days, the “Percent Treated Animals/Control Animals” value ([1]; Ex. 9b, saline, 600 mg/Kg IP) was 230% and the “Treated Group Survival Time (mean)” value ([1]; Ex. 9b, saline, 600 mg/Kg IP, control 9.0) was 20.7 days. For the same molecule, the “Percent Treated Animals/Control Animals” value ([1]; Ex. 9b, saline, 800 mg/Kg IP) was 171%, the “Treated Group Survival Time (mean)” value ([1]; Ex. 9b, saline, 800 mg/Kg IP, control 9.0) was 15.4 days and the “activity against L-1210 lymphoid leukemia” value ([1]; Example 9) was “active against L-1210 lymphoid leukemia”. For the same molecule, the “mortality attributed to drug toxicity” value ([1]; Example 9b, day five cut-off) was “only one instance”, the “DN 2 criteria of the National Cancer Institute” value ([1]; L-1210) was “successfully passed” and the antitumor activity [2] was “effective in vivo antitumor agents”. For the same molecule, the antitumor activity ([2]; listed as 2-β-D-ribofuranosylthiazole-4-carboxamide) was “positive antitumor activity; also recorded: significant antitumor activity in vivo”, the “in vitro antiviral activity” value [3] was “only moderate” and the “in vitro antiviral activity” value [4] was “only moderate”. For the same molecule, the “Percent Treated Animals/Control Animals” value ([5]; 12.5 mg/Kg IP once daily x5) was 111%, the “Treated Group Survival Time (median)” value ([5]; 12.5 mg/Kg IP once daily x5) was 9.5 days and the “Percent Treated Animals/Control Animals” value ([5]; 25 mg/Kg IP once daily x5) was 120%. The “Treated Group Survival Time (median)” value ([5]; 25 mg/Kg IP once daily x5) was 10.2 days, the “Percent Treated Animals/Control Animals” value ([5]; 50 mg/Kg IP once daily x5) was 129% and the “Treated Group Survival Time (median)” value ([5]; 50 mg/Kg IP once daily x5) was 11.0 days. For the same molecule, the “Percent Treated Animals/Control Animals” value ([5]; 100 mg/Kg IP once daily x5) was 149%, the “Treated Group Survival Time (median)” value ([5]; 100 mg/Kg IP once daily x5) was 12.7 days and the “Percent Treated Animals/Control Animals” value ([5]; 200 mg/Kg IP once daily x5) was 168%. The “Treated Group Survival Time (median)” value ([5]; 200 mg/Kg IP once daily x5) was 14.3 days, the “survival through day six (drug toxicity)” value ([5]; 12.5-200 mg/Kg IP once daily x5) was “all drug treated animals survived through day six” and the “activity in multiple dose assay” value ([5]; T/C >125% taken as positive) was “positive activity”. The “median death day vs control” value ([5]; all levels of drug tested) was “longer at all levels of drug tested”, the “median death day vs control” value ([5]; greater than 50 mg/Kg) was “significantly longer” and the “animals surviving the sixty day test period” value ([6]; 25 mg/Kg) was “all test animals survived”. The “Treated Group Survival Time (median)” value ([6]; 25 mg/Kg IP once daily x9) was 60 days, the “Percent Treated Animals/Control Animals” value ([6]; 25 mg/Kg IP once daily x9) was 326% and the “Treated Group Survival Time (median)” value ([6]; 50 mg/Kg IP once daily x9) was 60 days. For the same molecule, the “Percent Treated Animals/Control Animals” value ([6]; 50 mg/Kg IP once daily x9) was 326%, the “day of the one death” value ([6]; 50 mg/Kg, ten animals) was 47 days and the “animals judged as cured” value ([6]; 50 mg/Kg, ten animals, sixty days) was “nine cures”. The “Treated Group Survival Time (median)” value ([6]; 100 mg/Kg IP once daily x9) was 60 days, the “Percent Treated Animals/Control Animals” value ([6]; 100 mg/Kg IP once daily x9) was 326% and the “day of the one death” value ([6]; 100 mg/Kg, ten animals) was 46 days. The “animals judged as cured” value [6, 8] was “eight cures”, the tumor survivors [6, 8] was “one tumor survivor” and the “animals surviving the sixty day test period” value ([6]; 200 mg/Kg) was “all test animals survived”. The “Treated Group Survival Time (median)” value ([6]; 200 mg/Kg IP once daily x9) was 60 days, the “Percent Treated Animals/Control Animals” value ([6]; 200 mg/Kg IP once daily x9) was 326% and the “animals judged as cured” value ([6]; 200 mg/Kg, ten animals, sixty days) was “all ten”. The “animals surviving the sixty day test period” value ([6]; 400 mg/Kg) was “all test animals survived”, the “Treated Group Survival Time (median)” value ([6]; 400 mg/Kg IP once daily x9) was 60 days and the “Percent Treated Animals/Control Animals” value ([6]; 400 mg/Kg IP once daily x9) was 326%. For the same molecule, the “animals judged as cured” value ([6]; 400 mg/Kg, ten animals, sixty days) was “all ten”, the “mortality attributable to drug toxicity” value ([6]; 25-400 mg/Kg, day five cut-off) was “no mortality attributable to drug toxicity” and the “activity against Lewis lung carcinoma” value ([6]; Example 10) was “effective antitumor agent; also recorded: active antitumor agent; also recorded: outstanding activity”. For the same molecule, the “median survival time vs control” value ([6]; Example 10) was “dramatically extended”, the “DN 2 criteria of the National Cancer Institute” value ([6]; Lewis lung carcinoma) was “successfully passed” and the “cures at cessation of the test period” value ([6]; all but one dose level) was “at least 80%”. For the same molecule, the “cures at cessation of the test period” value ([6]; at two dose levels (200 and 400 mg/Kg)) was 100% and the “spectrum of in vitro antiviral activity, preliminary” value [7] was “marginal in vitro activity”.
